Experimental data published in patent publication US9359605B2, “Method of treating cancer by inhibition of DNA repair proteins” (Sarissa Inc., priority 2011, dated 2016).
pIC50: −log10 of the molar value. Read-outs that look alike come from different tables or passages of the source. d = 2'-deoxy (DNA); m = 2'-O-methyl

Columns and labels:
[1] = tested on: A549b cells; assay: Proliferation of A549b cells after transfection with antisense OLIGO/siRNA (cell counting, % of control OLIGO); format: cell-based, human; details: 20 nM; compared to non-targeting OLIGO 491S; preliminary assay, FIG. 12
Experimental: Cultured cell lines were maintained in minimum essential medium a with nucleosides plus 10% fetal bovine serum and penicillin (50 units/mL)/streptomycin (50 mg/L) (growth medium). Cultures were incubated in a humidified atmosphere of 5% CO2 at 37° C. Cultured cell lines were maintained and cytotoxicity assays conducted as described previously (3). Rapidly proliferating cells were utilized for establishing cultures of experimental cells, which were allowed to plate overnight in 25-cm^2 flasks prior to manipulation. […]
OLIGOs were introduced into cells with the use of Lipofectamine 2000 (LFA2K) (Invitrogen, Burlington, Ontario, Canada). […] Following the 4-day incubation, the proliferation of the treated cells (fold-increase in cell number) was calculated as a percentage of that of control cells. […] For the purpose of determining the anti-proliferative effect of antisense OLIGOs, the proliferation of cells treated with antisense OLIGOs was calculated as a percent of that of cells treated with an equivalent concentration of non-complementary control OLIGO (in this case OLIGO 32) mixed with an equivalent amount of LFA2K.
These experiments were carried out essentially as described in Example 2, after which one volume of medium was added, and cells were further incubated for 20 hours. […] Cells were incubated for 4 days, at which time cell number was counted. […]

[2] = tested on: BRCA2 mRNA; assay: RT-qPCR of BRCA2 mRNA 24 h after OLIGO transfection of A549 cells; format: cell-based, human; details: 20 nM OLIGO, 24 h post-transfection, FIG. 16
Experimental: (§1) Briefly, A549 cells seeded at a density of 2.0×10^5 per flask were transfected with 20 nM of OLIGO specific for each target or control OLIGO using Lipofectamine 2000 as the transfection reagent. Twenty four hours post-transfection mRNA was extracted and reverse transcribed into cDNA. RT-qPCR was performed for target mRNA levels using TaqMan reagents according to established protocols.

[3] = tested on: thymidylate synthase mRNA; assay: RT-qPCR of TS mRNA 24 h after OLIGO transfection of A549 cells; format: cell-based, human; details: 20 nM OLIGO, 24 h post-transfection, FIG. 16
Experimental: as §1

[4] = tested on: A549b cells; assay: Anti-proliferative activity of a drug on A549b cells pretreated with anti-BRCA2 OLIGO/siRNA; format: cell-based; details: Homo sapiens, curves conservatively extrapolated, read-out: concentration of olaparib required to inhibit proliferation of A549b cells by 50% (IC50)
Experimental: OLIGOs were introduced into cells with the use of Lipofectamine 2000 (LFA2K) (Invitrogen, Burlington, Ontario, Canada). OLIGOs were mixed with LFA2K at a ratio of 0.2 μg/ml per 10 nM OLIGO. The mixture was prepared at 11× the final concentration to which cells were exposed, so that 200 μL was added to 2 mL of medium in which cells were plated. After incubating at room temperature for 20 minutes, according to manufacturer's instructions, the OLIGOs were added to the cell medium. The OLIGO/LFA2K mix was then incubated (37° C.) on the cells for 4 hours, after which a second volume of medium was added. Cells were then incubated for 20 hours. […]
For cells treated with the drug olaparib, for the purposes of determining whether inhibitory activity was enhanced by the OLIGO pretreatment, olaparib was added at this time, in concentrations of from 0.01 μM to 3 μM. […] Following a further 4-day incubation, the proliferation of the treated cells (fold-increase in cell number) was calculated as a percentage of that of control cells. […] As indicated in Example 1, for the purpose of determining the anti-proliferative effect of antisense OLIGOs alone, the proliferation of cells treated with antisense OLIGOs was calculated as a percent of that of cells treated with an equivalent concentration of non-complementary control OLIGO (in this case OLIGO 32). […]

pIC50 ([4]; in the absence of BR1) | pIC50 ([4]; in the presence of BR1 (pretreatment)) | Compound | relative proliferation [1] | effect on BRCA2 mRNA level [2] | effect on TS mRNA level [3]
– | – | OLIGO 83: antisense to 3′-untranslated region of thymidylate synthase mRNA, 5′-gccaguGGCAACATccuuaa-3′ (SEQ ID NO: 25), fully phosphorothioated (antisense GCCAGUGGCAACATCCUUAA; sugars from the 5' end m6 d8 m6, all phosphorothioate, methylation of C not given here) | approximately 20% | no significant effect | reduce
~5.30 | ~7.30 | O=C(c1cc(Cc2n[nH]c(=O)c3ccccc23)ccc1F)N1CCN(C(=O)C2CC2)CC1 [olaparib] | – | – | –
